US9783536B2, “Nitrogen-containing heterocyclic compound or salt thereof” (FUJIFILM Corporation, priority 2013, dated 2017)
pIC50: −log10 of the molar value.

Legend:
human PI3Kα protein = target: T1, human PI3Kα protein (Homo sapiens, UniProt P42336); assay: PI3Kα enzyme assay (ADP-Glo); type: biochemical; conditions: read-out: PI3Kα enzyme inhibitory activity
T1 construct: purchased Carna Biosciences, Inc; host or cells: baculovirus expression system
How it was run: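 Biotinylated human PI3Kα (baculovirus-expressed, 4.5 nmol/L) pre-incubated 15 min with compound in Tris-HCl pH 7.5, MgCl2, BSA; reaction 60 min at 25° C with 50 μmol/L PIP2 and 100 μmol/L ATP final. ADP quantified by ADP-Glo luminescence; IC50 calculated.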

[1] = target: T2, GST fusion human ERK2 protein (Homo sapiens, UniProt P28482); assay: ERK2 enzyme assay (2); type: biochemical; conditions: ERK2 enzyme assay (2); read-out: ERK2 enzyme inhibitory activity (2)
T2 construct: purchased Carna Biosciences, Inc; host or cells: E. coli expression system
T2 sequence (P28482 whole entry, the tested form may be a part): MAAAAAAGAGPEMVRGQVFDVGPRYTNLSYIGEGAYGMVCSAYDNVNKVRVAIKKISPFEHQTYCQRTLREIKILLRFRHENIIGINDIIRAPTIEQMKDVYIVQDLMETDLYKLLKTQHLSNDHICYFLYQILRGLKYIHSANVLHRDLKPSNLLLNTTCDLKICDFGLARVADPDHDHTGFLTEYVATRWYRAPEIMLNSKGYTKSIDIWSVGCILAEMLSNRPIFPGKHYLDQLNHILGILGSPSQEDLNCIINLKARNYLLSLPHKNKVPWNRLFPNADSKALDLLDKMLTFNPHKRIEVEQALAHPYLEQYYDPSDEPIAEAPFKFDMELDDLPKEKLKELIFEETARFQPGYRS
How it was run: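 IC50 values come from mobility-shift measurement of phosphorylated versus unphosphorylated 5-FAM peptide substrate after EDTA quench. Beforehand, compound and 1.25 nmol/L E. coli-expressed GST–human ERK2 stood 15 min at room temperature (pH 7.5), then 1 mmol/L ATP and 4.25 μmol/L substrate (final) were added for 120 min at 25 °C.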

T1 sequence (P42336 whole entry): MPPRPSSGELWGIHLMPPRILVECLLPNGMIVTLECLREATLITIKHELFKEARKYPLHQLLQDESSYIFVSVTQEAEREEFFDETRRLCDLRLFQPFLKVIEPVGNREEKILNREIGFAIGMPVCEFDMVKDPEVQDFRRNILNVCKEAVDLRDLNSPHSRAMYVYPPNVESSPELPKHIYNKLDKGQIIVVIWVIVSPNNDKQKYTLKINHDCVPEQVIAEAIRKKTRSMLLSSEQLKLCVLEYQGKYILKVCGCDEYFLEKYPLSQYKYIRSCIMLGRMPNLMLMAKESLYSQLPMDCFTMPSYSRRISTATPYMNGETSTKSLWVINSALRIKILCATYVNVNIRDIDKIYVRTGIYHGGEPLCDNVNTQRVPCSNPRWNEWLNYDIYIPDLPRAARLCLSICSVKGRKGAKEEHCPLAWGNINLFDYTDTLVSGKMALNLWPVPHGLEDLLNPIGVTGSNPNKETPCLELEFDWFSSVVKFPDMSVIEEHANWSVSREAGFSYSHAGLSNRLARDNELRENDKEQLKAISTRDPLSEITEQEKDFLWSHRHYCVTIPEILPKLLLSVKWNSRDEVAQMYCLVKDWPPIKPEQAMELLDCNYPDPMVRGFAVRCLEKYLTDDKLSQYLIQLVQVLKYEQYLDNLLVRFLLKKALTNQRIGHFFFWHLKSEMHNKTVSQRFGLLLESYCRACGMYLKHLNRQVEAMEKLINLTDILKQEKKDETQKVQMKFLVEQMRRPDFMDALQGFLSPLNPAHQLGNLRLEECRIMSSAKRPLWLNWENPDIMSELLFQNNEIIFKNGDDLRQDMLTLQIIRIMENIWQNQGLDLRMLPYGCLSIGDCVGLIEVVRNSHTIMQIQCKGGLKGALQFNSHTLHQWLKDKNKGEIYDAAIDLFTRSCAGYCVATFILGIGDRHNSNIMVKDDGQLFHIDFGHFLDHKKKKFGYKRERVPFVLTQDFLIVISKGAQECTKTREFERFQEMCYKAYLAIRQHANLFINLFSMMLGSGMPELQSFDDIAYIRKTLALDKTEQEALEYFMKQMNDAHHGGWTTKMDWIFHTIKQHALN
T1 sequence (P27986 whole entry partner): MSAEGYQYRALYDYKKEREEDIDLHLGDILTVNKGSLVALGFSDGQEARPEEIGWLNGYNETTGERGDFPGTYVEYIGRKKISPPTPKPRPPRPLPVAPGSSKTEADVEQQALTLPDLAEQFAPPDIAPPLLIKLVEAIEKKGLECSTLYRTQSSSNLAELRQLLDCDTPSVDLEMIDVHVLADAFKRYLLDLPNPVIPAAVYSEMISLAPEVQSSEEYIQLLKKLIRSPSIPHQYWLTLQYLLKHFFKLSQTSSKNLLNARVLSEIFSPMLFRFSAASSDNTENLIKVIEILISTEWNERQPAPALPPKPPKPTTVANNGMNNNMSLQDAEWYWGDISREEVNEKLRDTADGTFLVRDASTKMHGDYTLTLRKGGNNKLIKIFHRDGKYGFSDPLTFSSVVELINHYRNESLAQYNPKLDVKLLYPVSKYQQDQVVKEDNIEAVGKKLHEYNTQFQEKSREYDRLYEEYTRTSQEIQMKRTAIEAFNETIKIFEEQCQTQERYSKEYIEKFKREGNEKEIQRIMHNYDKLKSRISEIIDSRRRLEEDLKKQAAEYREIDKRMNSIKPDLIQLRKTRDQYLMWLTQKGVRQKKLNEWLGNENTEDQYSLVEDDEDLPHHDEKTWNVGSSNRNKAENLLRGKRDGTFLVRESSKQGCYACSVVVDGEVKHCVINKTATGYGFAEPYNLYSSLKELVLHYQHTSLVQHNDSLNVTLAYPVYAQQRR

Structure (SMILES) | pIC50 (human PI3Kα protein) | pIC50 [1]
CC(C)c1cnnc(Nc2ccc3ncc(-c4cnn(Cc5ccc(N)cc5)c4)cc3n2)c1 [Example 0717, 7-(1-(4-Aminobenzyl)-1H-pyrazol-4-yl)-N-(5-isopropylpyridazin-3-yl)-1,5-naphthyridine-2-amine] | > 6.00 | > 6.00
COCCOC1CN(CCCn2cc(-c3cnc4ccc(Nc5cc(C(C)C)cnn5)nc4c3)cn2)C1 [Example 0718, N-(5-isopropylpyridazin-3-yl)-7-(1-(3-(3-(2-methoxyethoxy)azetidin-1-yl)propyl)-1H-pyrazol-4-yl)-1,5-naphthyridine-2-amine] | > 6.00 | > 6.00
Cc1n[nH]cc1-c1cnc2ccc(Nc3cc(C(C)C)cnn3)nc2c1 [Example 0719, N-(5-isopropylpyridazin-3-yl)-7-(3-methyl-1H-pyrazol-4-yl)-1,5-naphthyridine-2-amine] | > 6.00 | > 6.00
Cc1nn(C)nc1-c1cnc2ccc(Nc3cc(C(C)C)cnn3)nc2c1 [Example 0720, 7-(2,5-Dimethyl-2H-1,2,3-triazol-4-yl)-N-(5-isopropylpyridazin-3-yl)-1,5-naphthyridine-2-amine] | > 6.00 | > 6.00
CC(C)c1cnnc(Nc2ccc3ncc(-c4cnn(CCCN5CC(N(C)S(C)(=O)=O)C5)c4)cc3n2)c1 [Example 0721, N-(1-(3-(4-(6-((5-isopropylpyridazin-3-yl)amino)-1,5-naphthyridin-3-yl)-1H-pyrazol-1-yl)propyl)azetidin-3-yl)-N-methylmethane sulfonamide] | > 6.00 | > 6.00
CC(C)c1cnnc(Nc2ccc3ncc(-c4cnn(Cc5cncnc5)c4)cc3n2)c1 [Example 0722] | > 6.00 | > 6.00
CC(C)c1cnnc(Nc2ccc3ncc(-c4cnn(/C=C(\F)CN5CCCC5)c4)cc3n2)c1 [Example 0726, (Z)-7-(1-(2-fluoro-3-(pyrrolidin-1-yl)-1-propen-1-yl)-1H-pyrazol-4-yl)-N-(5-isopropylpyridazin-3-yl)-1,5-naphthyridine-2-amine] | > 6.00 | > 6.00
CC(C)c1cnnc(Nc2ccc3ncc(-c4cnn(CC(F)CN5CCCC5)c4)cc3n2)c1 (stereo not shown) [Example 0727] | > 6.00 | > 6.00
CC(C)c1cnnc(Nc2ccc3ncc(-c4cnn(CC5CN(C)CCO5)c4)cc3n2)c1 (stereo not shown) [Example 0728, N-(5-isopropylpyridazin-3-yl)-7-(1-((4-methylmorpholin-2-yl)methyl)-1H-pyrazol-4-yl)-1,5-naphthyridine-2-amine] | > 6.00 | > 6.00
CC(C)c1cnnc(Nc2ccc3ncc(-c4cnn(CC(O)CN5CCOCC5)c4)cc3n2)c1 (stereo not shown) [Example 0729] | > 6.00 | > 6.00
COC(CN1CCOCC1)Cn1cc(-c2cnc3ccc(Nc4cc(C(C)C)cnn4)nc3c2)cn1 (stereo not shown) [Example 0730] | > 6.00 | > 6.00
CC(C)c1cnnc(Nc2ccc3ncc(-c4cnn(CC(F)(F)CN5CCOCC5)c4)cc3n2)c1 [Example 0731] | > 6.00 | > 6.00
CC(C)c1cnnc(Nc2ccc3ncc(-c4cnn(CC(CN5CCOCC5)OCc5ccccc5)c4)cc3n2)c1 (stereo not shown) [Example 0732] | > 6.00 | > 6.00
Cc1ccc(-c2nn(C)cc2-c2cnc3ccc(Nc4cc(C(C)C)cnn4)nc3c2)cn1 [Example 0734] | > 6.00 | > 6.00
CC(C)c1cnnc(Nc2ccc3ncc(-c4cnn(CC(F)(F)CN5CCCC5)c4)cc3n2)c1 [Example 0735, 7-(1-(2,2-Difluoro-3-(pyrrolidin-1-yl)propyl)-1H-pyrazol-4-yl)-N-(5-isopropylpyridazin-3-yl)-1,5-naphthyridine-2-amine] | > 6.00 | > 6.00
Cc1ccncc1-c1nn(C)cc1-c1cnc2ccc(Nc3cc(C(C)C)cnn3)nc2c1 [Example 0736] | > 6.00 | 5.00 to 6.00
CC(C)c1cnnc(Nc2ccc3ncc(-c4cnn(CCOC5CN(C(=O)OC(C)(C)C)C5)c4)cc3n2)c1 [Example 0739, tert-Butyl 3-(2-(4-(6-((5-isopropylpyridazin-3-yl)amino)-1,5-naphthyridin-3-yl)-1H-pyrazol-1-yl)ethoxy)azetidine-1-carboxylate] | 5.00 to 6.00 | > 6.00

More lines, now with the values ahead:

pIC50 (human PI3Kα protein) | pIC50 [1] | Structure (SMILES)
> 6.00 | > 6.00 | CC(C)c1cnnc(Nc2ccc3ncc(-c4cnn(CCOC5CNC5)c4)cc3n2)c1 [Example 0740, 7-(1-(2-(azetidin-3-yloxy)ethyl)-1H-pyrazol-4-yl)-N-(5-isopropylpyridazin-3-yl)-1,5-naphthyridine-2-amine]
> 6.00 | > 6.00 | CC(C)c1cnnc(Nc2ccc3ncc(-c4cnn(CCOC5CN(C)C5)c4)cc3n2)c1 [Example 0741, N-(5-isopropylpyridazin-3-yl)-7-(1-(2-((1-methylazetidin-3-yl)oxy)ethyl)-1H-pyrazol-4-yl)-1,5-naphthyridine-2-amine]
> 6.00 | > 6.00 | CC(C)c1cnnc(Nc2ccc3ncc(-c4cnn(CCOC5CN(C(C)C)C5)c4)cc3n2)c1 [Example 0742]
> 6.00 | > 6.00 | CC(C)c1cnnc(Nc2ccc3ncc(-c4cnn(CCOC5CN(Cc6ccccc6)C5)c4)cc3n2)c1 [Example 0743]
> 6.00 | > 6.00 | COCCOC(CN1CCOCC1)Cn1cc(-c2cnc3ccc(Nc4cc(C(C)C)cnn4)nc3c2)cn1 (stereo not shown) [Example 0744]
> 6.00 | > 6.00 | CC(C)c1cnnc(Nc2ccc3ncc(-c4cnn(CC(CN5CCOCC5)OCC5CC5)c4)cc3n2)c1 (stereo not shown) [Example 0745]
> 6.00 | > 6.00 | CCN1CC(OCCn2cc(-c3cnc4ccc(Nc5cc(C(C)C)cnn5)nc4c3)cn2)C1 [Example 0746, 7-(1-(2-((l-Ethylazetidin-3-yl)oxy)ethyl)-1H-pyrazol-4-yl)-N-(5-isopropylpyridazin-3-yl)-1,5-naphthyridine-2-amine]
> 6.00 | > 6.00 | CC(C)c1cnnc(Nc2ccc3ncc(-c4cnn(CCOC5CN(CC(F)F)C5)c4)cc3n2)c1 [Example 0747, 7-(1-(2-((1-(2,2-difluoroethyl)azetidin-3-yl)oxy)ethyl)-1H-pyrazol-4-yl)-N-(5-isopropylpyridazin-3-yl)-1,5-naphthyridine-2-amine]
> 6.00 | > 6.00 | Cc1cc(-c2nn(C)cc2-c2cnc3ccc(Nc4cc(C(C)C)cnn4)nc3c2)cc(C)n1 [Example 0748, 7-(3-(2,6-Dimethylpyridin-4-yl)-1-methyl-1H-pyrazol-4-yl)-N-(5-isopropylpyridazin-3-yl)-1,5-naphthyridine-2-amine]
> 6.00 | > 6.00 | CC(C)c1cnnc(Nc2ccc3ncc(-c4cn(C)nc4-c4ccnc(N5CCOCC5)c4)cc3n2)c1 [Example 0749, N-(5-isopropylpyridazin-3-yl)-7-(1-methyl-3-(2-morpholinopyridin-4-yl)-1H-pyrazol-4-yl)-1,5-naphthyridine-2-amine]
> 6.00 | > 6.00 | COCCOc1cc(-c2nn(C)cc2-c2cnc3ccc(Nc4cc(C(C)C)cnn4)nc3c2)ccn1 [Example 0750, N-(5-isopropylpyridazin-3-yl)-7-(3-(2-(2-methoxyethoxyl)pyridin-4-yl)-1-methyl-1H-pyrazol-4-yl)-1,5-naphthyridine-2-amine]
> 6.00 | > 6.00 | CC(C)c1cnnc(Nc2ccc3ncc(-c4cn(C)nc4-c4ccnc(OCCN(C)C)c4)cc3n2)c1 [Example 0751]
